Test results as given in the supplement of paper PMC6965134.
± gives the standard deviation of the averaged measurements.

Assay: TIMS collisional cross section (CCS, N2) of the lipid ion; higher = larger ion cross section
Settings: ionization mode: positive, one isomer drawn
Experimental: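 Lipid extracts of human plasma (NIST SRM 1950), mouse liver and HeLa cells were separated by nanoflow C18 LC (30 min gradient, 60 °C) and analysed by TIMS-PASEF on a timsTOF Pro in positive ion mode. Ion mobility was calibrated with the Agilent tuning mix and converted to collisional cross sections (Mason–Schamp) in N2 drift gas. Lipids were identified by MS/MS (SimLipid) and manual curation. SMILES are LIPID MAPS representative structures for the annotated lipid.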

Structure (SMILES)	TIMS collisional cross section (sample type: Liver)	TIMS collisional cross section (sample type: plasma)	TIMS collisional cross section (sample type: HeLa)
CCCCCC/C=C\CCCCCCCC(=O)OC[C@H](CO)OC(=O)CCCCCCC/C=C\CCCCCCCC [DG 16:1_18:1_0:0] (ion (formula + adduct): [C37H68O5+NH4] 1+)	260 Å²	258.75 ± 1.2 Å²	
CCCCC/C=C\C/C=C\CCCCCCCC(=O)O[C@@H](CO)COC(=O)CCCCCCC/C=C\CCCCCC [DG 16:1_18:2_0:0] (ion (formula + adduct): [C37H66O5+NH4] 1+)	253.1 Å²	253.8 Å²	
CCCCCCCC/C=C\CCCCCCCC(=O)O[C@@H](CO)COC(=O)CCCCCCCCCCCCCCCC [DG 17:0_18:1_0:0] (ion (formula + adduct): [C38H72O5+NH4] 1+)	266 Å²		265.7 Å²
CCCCC/C=C\C/C=C\CCCCCCCC(=O)O[C@@H](CO)COC(=O)CCCCCCCCCCCCCCCC [DG 17:0_18:2_0:0] (ion (formula + adduct): [C38H70O5+NH4] 1+)	262.8 Å²		
CCCCCCCCCCCCCCCCCC(=O)OC[C@H](CO)OC(=O)CCCCCCCCCCCCCCC [DG 18:0_16:0_0:0] (ion (formula + adduct): [C37H72O5+NH4] 1+)	265.6 Å²	265.6 Å²	
CCCCCCCCCCCCCCCCCC(=O)OCC(CO)OC(=O)CCCCCCCCCCCCCCCCC (centres undefined) [DG 18:0_18:0_0:0] (ion (formula + adduct): [C39H76O5+NH4] 1+)		273.4 Å²	272.2 Å²
CCCCCCCC/C=C\CCCCCCCC(=O)O[C@@H](CO)COC(=O)CCCCCCCCCCCCCCCCC [DG 18:0_18:1_0:0] (ion (formula + adduct): [C39H74O5+NH4] 1+)	269.6 Å²		
CCCCC/C=C\C/C=C\C/C=C\CCCCCCC(=O)O[C@@H](CO)COC(=O)CCCCCCCCCCCCCCCCC [DG 18:0_20:3_0:0] (ion (formula + adduct): [C41H74O5+NH4] 1+)	271.8 Å²		
CCCCC/C=C\C/C=C\C/C=C\C/C=C\CCCC(=O)O[C@@H](CO)COC(=O)CCCCCCCCCCCCCCCCC [DG 18:0_20:4_0:0] (ion (formula + adduct): [C41H72O5+NH4] 1+)	270.8 Å²		270.8 Å²
CCCCCCCCCCCCCCCCCCCCCC(=O)O[C@@H](CO)COC(=O)CCCCCCCCCCCCCCCCC [DG 18:0_22:0_0:0] (ion (formula + adduct): [C43H84O5+NH4] 1+)		285.7 Å²	
CCCCCC/C=C/CCCCCCCCCC(=O)OC[C@H](CO)OC(=O)CCCCCCCCCCCCCCC [DG 18:1_16:0_0:0] (ion (formula + adduct): [C37H70O5+H] 1+)			257.7 Å²
CCCCCC/C=C/CCCCCCCCCC(=O)OC[C@H](CO)OC(=O)CCCCCCCCCCCCCCC [DG 18:1_16:0_0:0] (ion (formula + adduct): [C37H70O5+NH4] 1+)	262.85 ± 0.21 Å²	263.1 Å²	262.87 ± 0.64 Å²
CCCCCCCC/C=C\CCCCCCCC(=O)OC[C@H](CO)OC(=O)CCCCCCC/C=C\CCCCCCCC [DG 18:1_18:1_0:0] (ion (formula + adduct): [C39H72O5+NH4] 1+)	265.5 Å²	265.9 ± 0.71 Å²	265.2 Å²
CCCCC/C=C\C/C=C\CCCCCCCC(=O)O[C@@H](CO)COC(=O)CCCCCCC/C=C\CCCCCCCC [DG 18:1_18:2_0:0] (ion (formula + adduct): [C39H70O5+NH4] 1+)	261.3 Å²	261.2 Å²	261.1 Å²
CC/C=C\C/C=C\C/C=C\CCCCCCCC(=O)O[C@@H](CO)COC(=O)CCCCCCC/C=C\CCCCCCCC [DG 18:1_18:3_0:0] (ion (formula + adduct): [C39H68O5+NH4] 1+)		258.8 Å²	258.6 Å²
CCCCCCCC/C=C\CCCCCCCCCC(=O)O[C@@H](CO)COC(=O)CCCCCCC/C=C\CCCCCCCC [DG 18:1_20:1_0:0] (ion (formula + adduct): [C41H76O5+NH4] 1+)	271.8 Å²		
CCCCC/C=C\C/C=C\CCCCCCCCCC(=O)O[C@@H](CO)COC(=O)CCCCCCC/C=C\CCCCCCCC [DG 18:1_20:2_0:0] (ion (formula + adduct): [C41H74O5+NH4] 1+)		268.2 Å²	
CCCCC/C=C\C/C=C\C/C=C\CCCCCCC(=O)O[C@@H](CO)COC(=O)CCCCCCC/C=C\CCCCCCCC [DG 18:1_20:3_0:0] (ion (formula + adduct): [C41H72O5+NH4] 1+)	267 Å²		266.8 Å²
CCCCC/C=C\C/C=C\C/C=C\C/C=C\CCCC(=O)O[C@@H](CO)COC(=O)CCCCCCC/C=C\CCCCCCCC [DG 18:1_20:4_0:0] (ion (formula + adduct): [C41H70O5+NH4] 1+)	266 Å²	265.8 Å²	
CC/C=C\C/C=C\C/C=C\C/C=C\C/C=C\CCCC(=O)O[C@@H](CO)COC(=O)CCCCCCC/C=C\CCCCCCCC [DG 18:1_20:5_0:0] (ion (formula + adduct): [C41H68O5+H] 1+)		271.1 Å²	
CC/C=C\C/C=C\C/C=C\C/C=C\C/C=C\CCCC(=O)O[C@@H](CO)COC(=O)CCCCCCC/C=C\CCCCCCCC [DG 18:1_20:5_0:0] (ion (formula + adduct): [C41H68O5+NH4] 1+)			263.8 Å²
CCCCCCCC/C=C\CCCCCCCCCCCC(=O)O[C@@H](CO)COC(=O)CCCCCCC/C=C\CCCCCCCC [DG 18:1_22:1_0:0] (ion (formula + adduct): [C43H80O5+NH4] 1+)	278.5 Å²		
CCCCC/C=C\C/C=C\C/C=C\C/C=C\CCCCCC(=O)O[C@@H](CO)COC(=O)CCCCCCC/C=C\CCCCCCCC [DG 18:1_22:4_0:0] (ion (formula + adduct): [C43H74O5+NH4] 1+)		273 Å²	
CC/C=C\C/C=C\C/C=C\C/C=C\C/C=C\CCCCCC(=O)O[C@@H](CO)COC(=O)CCCCCCC/C=C\CCCCCCCC [DG 18:1_22:5_0:0] (ion (formula + adduct): [C43H72O5+NH4] 1+)	272.3 Å²		
CC/C=C\C/C=C\C/C=C\C/C=C\C/C=C\C/C=C\CCC(=O)O[C@@H](CO)COC(=O)CCCCCCC/C=C\CCCCCCCC [DG 18:1_22:6_0:0] (ion (formula + adduct): [C43H70O5+NH4] 1+)	269.9 Å²		270 Å²
CCCCC/C=C\C/C=C\CCCCCCCC(=O)OC[C@H](CO)OC(=O)CCCCCCC/C=C\C/C=C\CCCCC [DG 18:2_18:2_0:0] (ion (formula + adduct): [C39H68O5+NH4] 1+)	256.6 Å²	257.1 Å²	
CC/C=C\C/C=C\C/C=C\CCCCCCCC(=O)O[C@@H](CO)COC(=O)CCCCCCC/C=C\C/C=C\CCCCC [DG 18:2_18:3_0:0] (ion (formula + adduct): [C39H66O5+NH4] 1+)	254.2 Å²		
